Activity calls are given as the source filed them. The rule behind the calls is not given here.
How the values were obtained:
[1] = Cytotoxicity against human HuH7 cells after 72 hrs by CellTiter 96 AQueous one solution cell proliferation assay; type: cell-based, Huh-7
Hepatitis C virus [2] = assay: Antiviral activity against Hepatitis C virus JFH-1 infected in human HuH7 cells assessed as inhibition of viral RNA replication after 3 days by quantitative real-time RT-PCR analysis; type: functional, organism-based; details: for Activity: Hepacivirus hominis; for EC50 / EC90: JFH-1, Huh-7, 72 h
[3] = Drug level in Sprague-Dawley rat liver treated with at 50 mg/kg, po 2-(((S)-(((2R,3R,4R,5R)-5-(2,4-dioxo-3,4-dihydropyrimidin-1(2H)-yl)-4-fluoro-4-(fluoromethyl)-3-hydroxytetrahydrofuran-2-yl)methoxy) (phenoxy)phosphoryl)amino) propanoate assessed as compound formation by HPLC-MS/MS analysis; type: ADME, organism-based; details: in vivo
[4] = Half life in Sprague-Dawley rat liver assessed as 1-((2R,3R,4R,5R)-3-fluoro-3-(fluoromethyl)-4-hydroxy-5-(hydroxymethyl)tetrahydrofuran-2-yl)pyrimidine-2,4(1H,3H)-dione triphosphate at 50 mg/kg administered via oral gavage by HPLC-MS/MS analysis; type: ADME, organism-based; details: in vivo
Mus musculus [5] = assay: Acute toxicity in Kunming mouse assessed as mortality at 2 to 4 g/kg, po administered as single dose measured after 15 days; type: organism-based; details: in vivo, 360 h
Hepatitis C virus [6] = assay: Antiviral activity against Hepatitis C virus genotype 1b expressing NS5B RNA dependent RNA polymerase S282T mutant infected in human HuH7 cells after 48 hrs by luciferase reporter gene assay; type: functional, organism-based, Hepacivirus hominis; details: Huh-7, 48 h
[7] = Half life in simulated intestinal fluid at pH 7.4 at 1 mg/ml incubated up to 24 hrs at 37 degC by HPLC analysis; type: ADME
Hepatitis C virus [8] = assay: Antiviral activity against Hepatitis C virus genotype 1b infected in human HuH7 cells after 48 hrs by luciferase reporter gene assay; type: functional, organism-based, Hepacivirus hominis; details: Huh-7, 48 h
[9] = Half life in human liver S9 fraction at 1 mg/ml incubated up to 120 mins at 37 degC by HPLC analysis; type: ADME, subcellular
Mus musculus [10] = assay: Acute toxicity in Kunming mouse assessed as induction of damage to liver at 2 to 4 g/kg, po administered as single dose measured after 15 days; type: organism-based; details: in vivo, 360 h
[11] = AUC (0 to infinity) in Sprague-Dawley rat liver assessed as 1-((2R,3R,4R,5R)-3-fluoro-3-(fluoromethyl)-4-hydroxy-5-(hydroxymethyl)tetrahydrofuran-2-yl)pyrimidine-2,4(1H,3H)-dione triphosphate at 50 mg/kg administered via oral gavage by HPLC-MS/MS analysis; type: ADME, organism-based; set-up: dose 50 mg/kg, time infinity, route oral; details: in vivo
Mus musculus [12] = assay: Acute toxicity in Kunming mouse assessed as change in body weight at 2 to 4 g/kg, po administered as single dose measured after 15 days; type: organism-based; details: in vivo, 360 h
[13] = Half life in human plasma at 1 mg/ml incubated up to 24 hrs at 37 degC by HPLC analysis; type: ADME, cell-free
Hepatitis C virus [14] = assay: Antiviral activity against Hepatitis C virus genotype 1a infected in human HuH7 cells after 48 hrs by luciferase reporter gene assay; type: functional, organism-based, Hepacivirus hominis; details: subtype 1a, Huh-7, 48 h
[15] = AUC (0 to t) in Sprague-Dawley rat liver assessed as 1-((2R,3R,4R,5R)-3-fluoro-3-(fluoromethyl)-4-hydroxy-5-(hydroxymethyl)tetrahydrofuran-2-yl)pyrimidine-2,4(1H,3H)-dione triphosphate at 50 mg/kg administered via oral gavage by HPLC-MS/MS analysis; type: ADME, organism-based; details: in vivo
Mus musculus [16] = assay: Acute toxicity in Kunming mouse assessed as induction of observable clinical toxic signs at 2 to 4 g/kg, po administered as single dose measured after 15 days; type: organism-based; details: in vivo, 360 h
[17] = Cmax in Sprague-Dawley rat liver assessed as 1-((2R,3R,4R,5R)-3-fluoro-3-(fluoromethyl)-4-hydroxy-5-(hydroxymethyl)tetrahydrofuran-2-yl)pyrimidine-2,4(1H,3H)-dione triphosphate at 50 mg/kg administered via oral gavage by HPLC-MS/MS analysis; type: ADME, organism-based; set-up: dose 50 mg/kg, route oral; details: in vivo
Mus musculus [18] = assay: Acute toxicity in Kunming mouse assessed as induction of damage to heart at 2 to 4 g/kg, po administered as single dose measured after 15 days; type: organism-based; details: in vivo, 360 h
Mus musculus [19] = assay: Acute toxicity in Kunming mouse assessed as induction of damage to spleen at 2 to 4 g/kg, po administered as single dose measured after 15 days; type: organism-based; details: in vivo, 360 h
Hepatitis C virus [20] = assay: Antiviral activity against Hepatitis C virus JFH-1 infected in human HuH7 cells assessed as inhibition of viral core protein levels at 1 uM by Western blot method; type: functional, organism-based; details: Hepacivirus hominis
[21] = Tmax in Sprague-Dawley rat liver assessed as 1-((2R,3R,4R,5R)-3-fluoro-3-(fluoromethyl)-4-hydroxy-5-(hydroxymethyl)tetrahydrofuran-2-yl)pyrimidine-2,4(1H,3H)-dione triphosphate at 50 mg/kg administered via oral gavage by HPLC-MS/MS analysis; type: ADME, organism-based; details: in vivo
Mus musculus [22] = assay: Acute toxicity in Kunming mouse assessed as induction of damage to kidney at 2 to 4 g/kg, po administered as single dose measured after 15 days; type: organism-based; details: in vivo, 360 h
Hepatitis C virus [23] = assay: Antiviral activity against Hepatitis C virus genotype 2a infected in human HuH7 cells after 48 hrs by luciferase reporter gene assay; type: functional, organism-based, Hepacivirus hominis; details: Huh-7, 48 h
Mus musculus [24] = assay: Acute toxicity in Kunming mouse assessed as induction of induction of damage to lung at 2 to 4 g/kg, po administered as single dose measured after 15 days; type: organism-based; details: in vivo, 360 h
[25] = Half life in simulated gastric fluid at pH 1.2 at 1 mg/ml incubated up to 24 hrs at 37 degC by HPLC analysis; type: ADME

SMILES: O=c1ccn([C@@H]2O[C@H](CO)[C@@H](O)[C@]2(F)CF)c(=O)[nH]1
- CC50 at 72 h [1]: > 1000 µM

SMILES: CC(C)OC(=O)[C@H](C)N[P@](=O)(OC[C@H]1O[C@@H](n2ccc(=O)[nH]c2=O)[C@](C)(F)[C@@H]1O)Oc1ccccc1 [SOFOSBUVIR]
- CC50 at 72 h [1]: > 1000 µM
- Activity (Hepatitis C virus [2]): Dose-dependent effect
- EC50 (Hepatitis C virus [2]): 0.27 µM
- EC90 (Hepatitis C virus [2]): 0.83 µM

SMILES: O=c1ccn([C@@H]2O[C@H](COP(=O)(O)OP(=O)(O)OP(=O)(O)O)[C@@H](O)[C@]2(F)CF)c(=O)[nH]1
- Drug metabolism [3]: Metabolite_Detected

SMILES: CC(C)OC(=O)[C@H](C)N[P@](=O)(OC[C@H]1O[C@@H](n2ccc(=O)[nH]c2=O)[C@@](F)(CF)[C@@H]1O)Oc1ccccc1
- t1/2 [4]: 3.73 h
- Activity (Mus musculus [5]): Non-Toxic
- CC50 at 72 h [1]: > 1000 µM
- EC50 (Hepatitis C virus [6]): 1.13 µM
- EC90 (Hepatitis C virus [6]): 7.7 µM
- half-life at 1 mg/ml [7]: > 24 h
- EC50 (Hepatitis C virus [8]): 0.24 µM
- EC90 (Hepatitis C virus [8]): 0.5 µM
- half-life [9]: 0.49 h
- Activity (Mus musculus [10]): Non-Toxic
- Activity (Hepatitis C virus [2]): Dose-dependent effect
- EC50 (Hepatitis C virus [2]): 0.18 µM
- EC90 (Hepatitis C virus [2]): 0.74 µM
- AUC [11]: 15655 ng·h/g
- Activity (Mus musculus [12]): Non-Toxic
- half-life at 1 mg/ml [13]: 17.3 h
- EC50 (Hepatitis C virus [14]): 0.31 µM
- EC90 (Hepatitis C virus [14]): 1.26 µM
- AUCt [15]: 14540 ng·h/g
- Activity (Mus musculus [16]): Non-Toxic
- Cmax [17]: 1895 ng/g
- Activity (Mus musculus [18]): Non-Toxic
- Activity (Mus musculus [19]): Non-Toxic
- Activity (Hepatitis C virus [20]): Active
- Tmax [21]: 5.83 h
- Activity (Mus musculus [22]): Non-Toxic
- EC50 (Hepatitis C virus [23]): 0.54 µM
- EC90 (Hepatitis C virus [23]): 3.05 µM
- Activity (Mus musculus [24]): Non-Toxic
- half-life at 1 mg/ml [25]: > 24 h

Reference: ChEMBL document CHEMBL4251570, “Synthesis and biological evaluation of a novel β-D-2'-deoxy-2'-α-fluoro-2'-β-C-(fluoromethyl)uridine phosphoramidate prodrug for the treatment of hepatitis C virus infection” (Eur J Med Chem, 2018)
